Results published in EP0570920A1, “Probe for cannabinoid receptors” (YISSUM RESEARCH AND DEVELOPMENT COMPANY OF THE HEBREW …, priority 1992, dated 1993).
Like-named read-outs stand apart in the source and are kept apart here.

Tests used:
[1] = cited from earlier work
[2] = biological target: T1, cannabinoid receptor (Rattus norvegicus, UniProt P20272); assay: Ligand binding assay with [³H]7, centrifugation assay on synaptosomal membrane preparation
T1 construct: a synaptosomal membrane preparation derived from rat whole brain, without brainstem; from tissue; host or cells: rat whole brain without brainstem, synaptosomal membranes
T1 sequence (P20272 whole entry): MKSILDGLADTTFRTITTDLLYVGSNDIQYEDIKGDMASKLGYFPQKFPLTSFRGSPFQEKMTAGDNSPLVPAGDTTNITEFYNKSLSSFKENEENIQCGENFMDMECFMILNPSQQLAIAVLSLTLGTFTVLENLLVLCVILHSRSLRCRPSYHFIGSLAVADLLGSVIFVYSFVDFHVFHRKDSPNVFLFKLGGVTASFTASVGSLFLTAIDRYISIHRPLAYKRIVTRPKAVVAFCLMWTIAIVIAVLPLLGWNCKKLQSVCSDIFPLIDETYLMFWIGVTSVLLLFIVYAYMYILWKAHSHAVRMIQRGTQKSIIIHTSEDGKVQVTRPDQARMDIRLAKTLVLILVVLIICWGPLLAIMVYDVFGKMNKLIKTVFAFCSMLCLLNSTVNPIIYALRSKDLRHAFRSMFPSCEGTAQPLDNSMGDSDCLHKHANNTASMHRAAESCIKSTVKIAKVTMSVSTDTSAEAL

[3] = Discrimination tests / in vivo experiment comparing (3), (7) and Δ¹-THC
[4] = biological target: T1, cannabinoid receptor; conditions: cited from earlier work
[5] = cited from earlier work; remark: listed apart in the source
[6] = pigeons; cited from earlier work
[7] = in vivo; cited from earlier work
[8] = Solubility of drug in BSA vehicle for binding assay; conditions: at concentrations above 5 uM in 5 mg/ml BSA

Question: For “7-hydroxyhexahydrocannabinols [Compound 5b]”, which “times more active than Δ¹-THC in discrimination tests” value ([1]; depending on the animal used (pigeon or rat) and on the timing of measurement) is on record?
Answer: Its value is 3-17 times.

Question: What about the “activity in discrimination tests relative to axial epimer (6b)” value ([1]; rat, in vivo) of the same molecule?
Answer: Its value is “considerably more active”.

Question: Which Ki [2] does the source give for `CCCCCCC(C)(C)c1cc(O)c2c(c1)OC(C)(C)[C@@H]1CC=C(CO)C[C@@H]21` [Compound 3] here?
Answer: The Ki was 0.188 nM.

Question: What about the “activity in the discrimination tests, (3) versus (7)” value [3] of the same molecule?
Answer: The value was “essentially equivalent in activity”.

Question: What about the “potency ratio of 3 to 4 for binding to the cannabinoid receptor” value [4] of the same molecule?
Answer: The value was “circa 1500”.

Question: And the “competition for the specific binding of [³H]1” value ([4]; membranes from rat brain)?
Answer: The value was “completes fully”.

Question: And the Ki ([4]; read-out: K, heterologous displacement of [³H]1, membranes from rat brain)?
Answer: Its Ki is 0.234 nM.

Question: And the “times more potent than Δ¹-THC in pharmacological tests” value ([5]; various animal species)?
Answer: Its value is 100-800 times.

Question: What about the “times more potent than Δ¹-THC in drug discrimination” value [6] of the same molecule?
Answer: Its value is 80 times.

Question: Which results are given for `CCCCCCC(C)(C)c1cc(O)c2c(c1)OC(C)(C)[C@H]1CC=C(CO)C[C@H]21` [Compound 4]?
Answer: Ki [2]: 466 nM; fold less potent than its enantiomer compound 3 (HU-210) in binding ([2]; displacement of [³H]7): 2500 fold; potency relative to (3) in in vivo pharmacological tests ([5]; in vivo): several thousand times less potent

Question: Which “cannabimimetic activity relative to axial epimer (6a)” value [7] does the source give for `CCCCCc1cc(O)c2c(c1)OC(C)(C)C1CCC(C)CC21` (stereo not drawn) [Compound 5a] here?
Answer: Its value is “more active”.

Question: Which “times more potent than (3) in the binding experiments” value [2] does the source give for `CCCCCCC(C)(C)c1cc(O)c2c(c1)OC(C)(C)C1CCC(CO)CC21` (stereo not drawn) [Compound 7, 7-hydroxy-hexahydrocannabinol-5'-dimethyl heptyl homologue] here?
Answer: Its value is “about 4 times”.

Question: And the “times more potent than Δ¹-THC on binding” value [2]?
Answer: Its value is “about 1000 times”.

Question: What about the “binding potency compared with CP-55940” value ([2]; Fig. 1) of the same molecule?
Answer: Its value is “more potent than CP-55940”.

Question: What about the binding capacity ([2]; homologous displacement experiments with [³H]7) of the same molecule?
Answer: Its binding capacity is 4.41 ± 0.08 pmol/mg protein.

Question: What about the Kd ([2]; homologous displacement studies, [³H]7, rat whole brain synaptosomal membranes) of the same molecule?
Answer: Its Kd is 0.045 nM.

Question: What about the “activity in the discrimination tests, (3) versus (7)” value [3] of the same molecule?
Answer: Its value is “essentially equivalent in activity”.

Question: What about the “times more potent than Δ¹-THC in the in vivo experiment” value [3] of the same molecule?
Answer: Its value is 125 times.

Question: With `CCCCCc1cc(O)c2c(c1)OC(C)(C)[C@@H]1CCC(C)=C[C@@H]21` [Δ¹-THC, Δ-tetrahydrocannabonol] as the molecule, how does the solubility in vehicle [8] read?
Answer: Its solubility in vehicle is “partial insolubility”.
